{
  "source": "patent US6852741B2",
  "about": "“Compositions and methods for treatment of neurological disorders” (University of Florida, priority 2001, dated 2005)",
  "key": {"[1]": {"biological_target": "T1, α3β4(6′F10′T) nicotinic acetylcholine receptor (Rattus norvegicus, UniProt P04757+P12392, A272T/S268F)", "T1 construct": "expressed in transfected cells; host or cells: Xenopus laevis oocytes injected with subunit cRNAs; mutant made by QuikChange site-directed mutagenesis", "T1 sequence (P04757 26-499)": "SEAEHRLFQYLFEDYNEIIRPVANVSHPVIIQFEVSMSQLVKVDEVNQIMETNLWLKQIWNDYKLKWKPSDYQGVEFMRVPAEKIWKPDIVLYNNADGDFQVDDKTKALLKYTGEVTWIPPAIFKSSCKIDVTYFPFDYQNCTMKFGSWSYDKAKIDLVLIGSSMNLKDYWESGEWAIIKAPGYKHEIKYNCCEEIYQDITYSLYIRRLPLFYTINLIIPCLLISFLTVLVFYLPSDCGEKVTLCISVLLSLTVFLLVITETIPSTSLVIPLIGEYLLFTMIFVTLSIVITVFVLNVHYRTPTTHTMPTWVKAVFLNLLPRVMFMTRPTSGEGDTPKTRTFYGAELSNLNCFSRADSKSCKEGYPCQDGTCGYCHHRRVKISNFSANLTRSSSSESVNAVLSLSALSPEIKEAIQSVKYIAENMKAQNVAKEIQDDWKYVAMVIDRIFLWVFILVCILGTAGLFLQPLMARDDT", "T1 sequence (P12392 21-495 S268F/A272T)": "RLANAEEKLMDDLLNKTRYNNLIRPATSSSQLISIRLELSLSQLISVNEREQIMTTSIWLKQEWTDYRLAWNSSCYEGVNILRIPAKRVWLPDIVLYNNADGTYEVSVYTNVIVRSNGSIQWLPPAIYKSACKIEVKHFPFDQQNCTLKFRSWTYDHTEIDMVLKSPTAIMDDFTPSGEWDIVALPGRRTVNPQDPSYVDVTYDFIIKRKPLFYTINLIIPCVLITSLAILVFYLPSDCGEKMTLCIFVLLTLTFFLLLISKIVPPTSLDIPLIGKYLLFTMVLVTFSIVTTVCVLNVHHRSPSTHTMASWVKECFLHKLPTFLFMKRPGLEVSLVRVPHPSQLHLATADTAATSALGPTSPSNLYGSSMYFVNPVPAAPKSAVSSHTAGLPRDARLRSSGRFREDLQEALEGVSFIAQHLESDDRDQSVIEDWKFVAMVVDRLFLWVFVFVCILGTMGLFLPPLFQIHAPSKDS", "assay": "Two-electrode voltage clamp of Xenopus oocytes expressing mutant α3β4(6′F10′T) receptors", "format": "cell-based", "details": "for Effect of hyperpolarized holding potential on residual inhibition: −100 mV versus −50 mV; for Residual inhibition of mutant compared with wild-type receptor: after 5 minute wash", "procedure": "cDNA clones. […] The sequences of the TM2 domains of the relevant subunits are shown below.\nConstruction of site-directed mutants. Site-directed mutagenesis was conducted with […] kits ([…], LaJolla, Calif.). In brief, two complimentary oligonucleotides were synthesized which contain the desired mutation flanked by 10-15 bases of unmodified nucleotide sequence. Using a thermal cycler, Pfu DNA polymerase extended the sequence around the whole vector, generating a plasmid with staggered nicks. […] After 12-16 cycles, the product was treated with Dpn I, which digested the methylated parent DNA into numerous small pieces. The product was then transformed into E. coli cells, which repaired the nicks. Mutations were confirmed by DNA sequencing.\n(§1) Preparation of RNA. After linearization and purification of cloned cDNAs, RNA transcripts were prepared in vitro using the appropriate mMessage mMachine kit from AMBION Inc. (Austin, Tex.).\n(§2) Expression in Xenopus oocytes. Mature (>9 cm) female Xenopus laevis African toads (NASCO, Ft. Atkinson, Wis.) were used as a source of oocytes. Prior to surgery, frogs were anesthetized by placing the animal in a 1.5 g/L solution of MS222 (3-aminobenzoic acid ethyl ester). Eggs were removed from an incision made in the abdomen. […] Subsequently, stage 5 oocytes were isolated and injected with 50 nl (5-20 ng) each of a mixture of the appropriate subunit cRNAs following harvest. Recordings were made 1 to 7 days after injection depending on the cRNAs being tested.\n(§3) Electrophysiology. […] Data were acquired using Labview software (NATIONAL INSTRUMENTS) or pClamp8 (AXON INSTRUMENTS) and filtered at a rate of 6 Hz. […] A Mariotte flask filled with Ringer's solution was used to maintain a constant hydrostatic pressure for drug deliveries and washes. Drugs were diluted in perfusion solution and loaded into a 2 ml loop at the terminus of the perfusion line. A bypass of the drug-loading loop allowed bath solution to flow continuously while the drug loop was loaded, and then drug application was synchronized with data acquisition by using a 2-way electronic valve. The rate of bath solution exchange and all drug applications was 6 ml/min. Current electrodes were filled with a solution containing 250 mM CsCl, 250 mM CsF and 100 mM EGTA and had resistances of 0.5-2 MΩ. Voltage electrodes were filled with 3 M KCl and had resistances of 1-3 MΩ.\n(§4) Experimental protocols and data analysis. Current responses to drug application were studied under two-electrode voltage clamp at a holding potential of −50 mV unless otherwise noted. Holding currents immediately prior to agonist application were subtracted from measurements of the peak response to agonist.\n(§5) The ratio of C2/C1 is referred to as the recovery response (FIGS. 2B, 3B and 3D). Measurements of C2/C1 that were <0.75 were taken to indicate that the experimental drug application produced some form of residual inhibition. An oocyte was not used for further experimental drug applications when the measurements of C2/C 1 became less than 0.75.\n(§6) Means and standard errors (SEM) were calculated from the normalized responses of at least four oocytes for each experimental concentration. For concentration-response relations (FIGS. 2 & 3), data were plotted using Kaleidagraph 3.0.2 (ABELBECK SOFTWARE; Reading, Pa.), and curves were generated from the Hill equation. [formula]\n(§7) In Formula I, Imax denotes the maximal response for a particular agonist/subunit combination, and n represents the Hill coefficient. Imax, n, and the EC50 were all unconstrained for the fitting procedures.\n(§8) The values for the C2/C1 ratios were plotted as functions of the experimental agonist concentrations applied between the C2 and C1 control responses. The data were then fit to the Hill equation with n constrained to equal −1 for the calculation of IC50 values."}, "[2]": {"biological_target": "T2, α3β4 nicotinic acetylcholine receptor (Rattus norvegicus, UniProt P04757+P12392)", "T2 construct": "expressed in transfected cells; host or cells: Xenopus laevis oocytes injected with subunit cRNAs", "T2 sequence (P04757 26-499)": "as the sequence (P04757 26-499) above", "T2 sequence (P12392 21-495)": "as the sequence (P12392 21-495 S268F/A272T) above, with F248S, T252A counted along it", "assay": "Two-electrode voltage clamp of Xenopus oocytes expressing wild-type α3β4 receptors", "format": "cell-based", "details": "for Protection from residual inhibition produced by 100 μM DMXB: pre-treatment and co-application, 100 μM ACh control after 5 minute wash", "procedure": "as §1, §2, §3, §4, §5, §6, §7\nas §8, with “values. Determination of significant differences between experimental and control groups (FIGS. 4A-4B and 5A-5D) was made by t-test (unpaired two-tailed).” for “values.”"}, "[3]": {"details": "Hill fit of peak currents, holding potential −50 mV"}},
  "data": [
    {"smiles": "CN1CCCC1c1cccnc1", "note": "(single isomer, unassigned; (-)) [Nicotine, (−)-Nicotine]", "values": [
      {"measurement": "n (Hill coefficient)", "setting": "[1]; Hill fit of peak currents", "result": "0.8 ± 0.3"},
      {"measurement": "Persistence of residual inhibition", "setting": "[1]; repeated applications, data not shown", "result": "up to an hour"},
      {"measurement": "Effect of hyperpolarized holding potential on residual inhibition", "setting": "[1]", "result": "enhanced"},
      {"measurement": "n (Hill coefficient)", "setting": "[2]; Hill fit of peak currents", "result": "1.2 ± 0.2"}
    ]},
    {"smiles": "COc1ccc(/C=C2\\CCCN=C2c2cccnc2)c(OC)c1", "note": "[DMXB, 3-[2,4-dimethoxybenzylidene]-anabaseine]", "values": [
      {"measurement": "IC50", "setting": "[1]", "result": "23 ± 17", "unit": "µM"},
      {"measurement": "Response to 100 μM ACh when co-applied with DMXB", "setting": "[1]; 30 μM DMXB co-applied with 100 μM ACh", "result": "13±2", "unit": "%"},
      {"measurement": "Effect of ACh co-application on DMXB-induced residual inhibition", "setting": "[1]; 30 μM DMXB co-applied with ACh", "result": "large increase in the residual inhibition"},
      {"measurement": "Residual inhibition of mutant compared with wild-type receptor", "setting": "[1]", "result": "more inhibition after it was applied at 100 or 300 μM"},
      {"measurement": "Effect of hyperpolarized holding potential on residual inhibition", "setting": "[1]", "result": "enhanced"},
      {"measurement": "IC50", "setting": "[2]", "result": "121 ± 48", "unit": "µM"},
      {"measurement": "Activation on co-application with 100 μM ACh, relative to ACh alone", "setting": "[2]; 100 μM DMXB co-applied with 100 μM ACh", "result": "4±0.2", "unit": "%"},
      {"measurement": "Effect of ACh co-application on DMXB-induced inhibition", "setting": "[2]; DMXB co-applied with 100 μM ACh", "result": "not enhanced"},
      {"measurement": "Effect of hyperpolarized holding potential on residual inhibition", "setting": "[2]; −100 mV versus −50 mV", "result": "enhanced"}
    ]},
    {"smiles": "CC[N+](CC)(CC)CC(=O)Nc1c(C)cccc1C", "note": "[QX-314, 2-(triethylamino)-N-(2,6-dimethylphenyl)-acetamide]", "values": [
      {"measurement": "Protection from residual inhibition produced by 100 μM DMXB", "setting": "[2]", "result": "neither of these agents provided any protection"}
    ]},
    {"smiles": "CNCC/C=C/c1cccnc1", "note": "[TC-2403, (E)-N-methyl-4-(3-pyridinyl)-3-butene-1-amine]", "values": [
      {"measurement": "n (Hill coefficient)", "setting": "[1]; Hill fit of peak currents", "result": "2.1 ± 0.2"},
      {"measurement": "Max response (relative to ACh Maximum)", "setting": "[1]; [3]", "result": "0.38 ± 0.01"},
      {"measurement": "EC50", "setting": "[1]; activation of peak currents", "result": "111 ± 5", "unit": "µM"},
      {"measurement": "Control ACh response after application, relative to pre-application control values", "setting": "[1]; after 1 mM TC-2403, 5 minute wash", "result": "70±6", "unit": "%"},
      {"measurement": "Residual inhibition of mutant compared with wild-type receptor", "setting": "[1]", "result": "no significant increase in residual inhibition at concentrations less than 1 mM"},
      {"measurement": "Protection from residual inhibition produced by 100 μM DMXB", "setting": "[1]; pre-treatment and co-application, p<0.01 for TC-2403", "result": "significant protection"},
      {"measurement": "Protection from residual inhibition produced by 300 μM nicotine", "setting": "[1]; pre-treatment and co-application, p<0.05 for TC-2403", "result": "significant protection"},
      {"measurement": "n (Hill coefficient)", "setting": "[2]; Hill fit of peak currents", "result": "2.1 ± 0.2"},
      {"measurement": "Max response (relative to ACh Maximum)", "setting": "[2]; [3]", "result": "0.09 ± 0.01"},
      {"measurement": "EC50", "setting": "[2]; activation of peak currents", "result": "347 ± 12", "unit": "µM"},
      {"measurement": "Protection from residual inhibition produced by 100 μM DMXB", "setting": "[2]", "result": "significant (p<0.05) reduction in the residual inhibition"}
    ]},
    {"smiles": "CCCCNc1ccc(C(=O)OCCN(C)C)cc1", "note": "[tetracaine]", "values": [
      {"measurement": "Protection from residual inhibition produced by 100 μM DMXB", "setting": "[2]", "result": "neither of these agents provided any protection"}
    ]}
  ]
}
